Measured values as given in patent US20210205253A1, “Use Of Stearic Acid For Preventing Or Treating Pulmonary Fibrosis” (THE ASAN FOUNDATION, priority 2018, published 2021).

Legend:
[1] = test system: human pulmonary epithelial cells (BEAS-2B); test: Cell viability (MTT) of human pulmonary epithelial cells; type: cell-based; settings: stearic acid 40 uM/mL + TGF-β 5 ng/mL, 24 h, versus TGF-β alone
Experimental: After epithelial cells and fibroblasts were aliquoted into 6-well plates at 2×10^4 cells/well and a stabilization time was imparted for 24 hours, and 15 hours after deficiency, cells were treated with stearic acid (40 uM/mL), TGF-β (5 ng/mL), and stearic acid (40 uM/mL)+TGF-β (5 ng/mL) in this order. After the cells were cultured in an incubator for 24 hours after the treatment, the next-step experiment was performed.
After a 24-hour cell stimulation by the method in Example 1-3 was completed, the medium of epithelial cells and fibroblasts was replaced with a general culture medium, 10 μl of an MTT solution (20 mg/ml) was further added, and then the outside of the plate was wrapped with aluminum foil and cells were cultured in an incubator for 2 hours. […] After 2 hours, cell activation was measured at an absorbance value of 595 nm using an ELISA reader.
For this purpose, after each culture (BEGM(Lonza) in the case of MRC-5, and BMEM (ATCC) in the case of BEAS-2B) of human pulmonary fibroblasts (MRC-5; ATCC® CCL171™) and human pulmonary epithelial cells (BEAS-2B; ATCC® CRL9609™) was treated with stearic acid (40 uM/mL), TGF-β (5 ng/mL; Sigma), or stearic acid (40 uM/mL)+TGF-β (5 ng/mL) by the method described in Example 1-3 for 24 hours, cell viability was measured by the method in Example 1-4. […]

pulmonary fibroblasts = test: Collagen 1 and α-SMA immunoblotting in pulmonary fibroblasts; type: cell-based, human; settings: stearic acid 40 uM/mL
Experimental: After epithelial cells and fibroblasts were aliquoted into 6-well plates at 2×10^4 cells/well and a stabilization time was imparted for 24 hours, and 15 hours after deficiency, cells were treated with stearic acid (40 uM/mL), TGF-β (5 ng/mL), and stearic acid (40 uM/mL)+TGF-β (5 ng/mL) in this order. After the cells were cultured in an incubator for 24 hours after the treatment, the next-step experiment was performed. After 24 hours of cell stimulation by the method of Example 1-3, the cells were washed twice with iced phosphate buffer saline (PBS), a protein lysate solution was put thereinto, the cells were scraped out and collected in a 1.5 ml EP tube, and then the cells were lysed in a grinder for 30 seconds. Next, centrifugation was performed at a speed of 14,000 rpm at 4° C. for 20 minutes, and the protein was quantified using the BCA analysis method. Thereafter, the protein sample was boiled at 95° C. for 10 minutes for the same amount of protein, and then the expression levels of collagen type 1 and α-SMA were measured by immunoblotting. After the expression level of the protein was confirmed, a significance test between samples was performed using a statistical program. […] The collagen 1/actin or α-SMA/actin indicated on the y-axis of FIGS. 4A and 4B means a value obtained by correcting the protein amount of collagen 1 or α-SMA with the amount of actin, which is an intracellular control protein. […] Further, referring to the test method of obtaining the results in FIG. 4, after pulmonary fibroblasts were treated with palmitic acid at various concentrations (10, 20, and 40 μM/mL), the levels of collagen 1 (collagen 1/actin; FIG. 6A) and α-SMA (α-SMA/actin; FIG. 6B), which are intracellular fibrosis markers, were measured, and shown as relative values to the control (CTL; medium only). […] 40 uM/mL stearic acid, 10 uM/mL palmitic acid, and 5 ng/mL TGF-β were used in the experiment, respectively. […] In addition, referring to the test method of obtaining the results in FIG. 7, the experiment was performed using oleic acid (OA) instead of palmitic acid, and the levels of collagen 1 (collagen 1/actin; FIG. 8A) and α-SMA (α-SMA/actin; FIG. 8B) were measured and shown as relative values to the control (CTL; medium only). 40 uM/mL stearic acid, 40 uM/mL oleic acid, and 5 ng/mL TGF-β were used in the experiment, respectively.

[2] = test system: p-Smad2/3 and Smad7 in MRC-5 cells; test: p-Smad2/3 and Smad7 expression in fibroblasts; type: cell-based, human; settings: 40 μM stearic acid pre-treatment 16 h, TGF-β1 1 h
Experimental: The present inventors pre-treated a human pulmonary fibroblast cell line MRC-5 with 40 μM stearic acid for 16 hours, treated the MRC-5 cells with TGF-β1 for 1 hour, and then examined the expression levels of p-Smad2/3 and Smad7 in order to elucidate the anti-fibrotic mechanism of stearic acid in human pulmonary fibroblasts (FIGS. 12A and 12B). Further, to investigate the effect of stearic acid on the production of reactive oxygen species (ROS), MRC-5 cells were pre-treated with 40 μM stearic acid for 16 hours, and cells treated with TGF-β1 for 1 hour were stained with DCF-DA and analyzed by FACS (FIG. 12C). Furthermore, MRC-5 cells were pre-treated with 5 mM N-acetylcysteine (NAC), which is an antioxidant, for 1 hour and treated with TGF-β1 for 1 hour, and then the expression of p-Smad2/3 was examined (FIG. 12D).

[3] = increase by oleic acid 40 uM/mL
[4] = increase by palmitic acid 10 uM/mL

CCCCCCCCCCCCCCCCCC(=O)O [stearic acid]
cell viability of pulmonary epithelial cells [1]: cell viability increased | collagen 1/actin (pulmonary fibroblasts; increase by TGF-β 5 ng/mL): significantly inhibited | α-SMA/actin (pulmonary fibroblasts; increase by TGF-β 5 ng/mL): significantly inhibited | collagen 1/actin (pulmonary fibroblasts; [3]): significantly inhibited | α-SMA/actin (pulmonary fibroblasts; [3]): significantly inhibited | collagen 1/actin (pulmonary fibroblasts; [4]): significantly inhibited | α-SMA/actin (pulmonary fibroblasts; [4]): significantly inhibited | expression of Smad 7 reduced by TGF-β1 [2]: restored | expression of p-Smad2/3 induced by TGF-β1 [2]: inhibited
